These are literature values, as cited in PubChem BioAssay AID1259409 (Chemical Carcinogenesis Research Information System (CCRIS), 2018).

For the series, the system named is rodent chemically induced tumor inhibition, incidence and multiplicity. Kind of series: CCRIS tumor inhibitor studies.

Each structure is given as a SMILES string.

For the molecule `C=C1CC[C@H](O)C/C1=C/C=C1\CCC[C@]2(C)[C@@H]([C@H](C)CC[C@@H](O)C(C)(C)O)CC[C@@H]12`, the “tumour outcome (control, treated, inhibition, significance)” value is, setting by setting: (Carcinogen: N-N-DIETHYLNITROSAMINE [55-18-5], N-METHYL-N-NITROSOUREA [684-93-5], N,N'-DIMETHYLHYDRAZINE [540-73-8], N-BUTYL-N-(4-HYD, Carcinogen: N-N-DIETHYLNITROSAMINE [55-18-5], N-METHYL-N-NITROSOUREA [684-93-5], N,N'-DIMETHYLHYDRAZINE [540-73-8], N-BUTYL-N-(4-HYD, Dose [Inhibitor]: 1 PPM IN DIET FOR 25 WK BEGINNING 1 WK POST LAST CARCINOGEN DOSE (STUDY DURATION: 30 WK), Route [Inhibitor]: ORAL, Species: RAT, Strain/Sex: F344/MALE, Target Tissue: Type of Lesion: COLON: ADENOCARCINOMA, Dose [Carcinogen]: 100 MG/KG BW DEN IP ONCE ON DAY 0, 20 MG/KG BW MNU IP 4X ON DAYS 2, 5, 8, 11, 40 MG/KG BW DMH SC ON DAYS 14, 17, 20, 23;, Dose [Carcinogen]: 100 MG/KG BW DEN IP ONCE ON DAY 0, 20 MG/KG BW MNU IP 4X ON DAYS 2, 5, 8, 11, 40 MG/KG BW DMH SC ON DAYS 14, 17, 20, 23;, Promoter: NONE) 14/18 (77.8%), 10/14 (71.4%), 8%, not significant; (Carcinogen: N-N-DIETHYLNITROSAMINE [55-18-5], N-METHYL-N-NITROSOUREA [684-93-5], N,N'-DIMETHYLHYDRAZINE [540-73-8], N-BUTYL-N-(4-HYD, Carcinogen: N-N-DIETHYLNITROSAMINE [55-18-5], N-METHYL-N-NITROSOUREA [684-93-5], N,N'-DIMETHYLHYDRAZINE [540-73-8], N-BUTYL-N-(4-HYD, Dose [Inhibitor]: 1 PPM IN DIET FOR 25 WK BEGINNING 1 WK POST LAST CARCINOGEN DOSE (STUDY DURATION: 30 WK), Route [Inhibitor]: ORAL, Species: RAT, Strain/Sex: F344/MALE, Target Tissue: Type of Lesion: COLON: ADENOMA, Dose [Carcinogen]: 100 MG/KG BW DEN IP ONCE ON DAY 0, 20 MG/KG BW MNU IP 4X ON DAYS 2, 5, 8, 11, 40 MG/KG BW DMH SC ON DAYS 14, 17, 20, 23;, Dose [Carcinogen]: 100 MG/KG BW DEN IP ONCE ON DAY 0, 20 MG/KG BW MNU IP 4X ON DAYS 2, 5, 8, 11, 40 MG/KG BW DMH SC ON DAYS 14, 17, 20, 23;, Promoter: NONE) 6/18 (33.3%), 3/14 (21.4%), 36%, not significant; (Carcinogen: N-N-DIETHYLNITROSAMINE [55-18-5], N-METHYL-N-NITROSOUREA [684-93-5], N,N'-DIMETHYLHYDRAZINE [540-73-8], N-BUTYL-N-(4-HYD, Carcinogen: N-N-DIETHYLNITROSAMINE [55-18-5], N-METHYL-N-NITROSOUREA [684-93-5], N,N'-DIMETHYLHYDRAZINE [540-73-8], N-BUTYL-N-(4-HYD, Dose [Inhibitor]: 5 PPM IN DIET FOR 25 WK BEGINNING 1 WK POST LAST CARCINOGEN DOSE (STUDY DURATION: 30 WK), Route [Inhibitor]: ORAL, Species: RAT, Strain/Sex: F344/MALE, Target Tissue: Type of Lesion: COLON: ADENOCARCINOMA, Dose [Carcinogen]: 100 MG/KG BW DEN IP ONCE ON DAY 0, 20 MG/KG BW MNU IP 4X ON DAYS 2, 5, 8, 11, 40 MG/KG BW DMH SC ON DAYS 14, 17, 20, 23;, Dose [Carcinogen]: 100 MG/KG BW DEN IP ONCE ON DAY 0, 20 MG/KG BW MNU IP 4X ON DAYS 2, 5, 8, 11, 40 MG/KG BW DMH SC ON DAYS 14, 17, 20, 23;, Promoter: NONE) 14/18 (77.8%), 5/14 (35.7%), 54%, p<0.05; (Carcinogen: N-N-DIETHYLNITROSAMINE [55-18-5], N-METHYL-N-NITROSOUREA [684-93-5], N,N'-DIMETHYLHYDRAZINE [540-73-8], N-BUTYL-N-(4-HYD, Carcinogen: N-N-DIETHYLNITROSAMINE [55-18-5], N-METHYL-N-NITROSOUREA [684-93-5], N,N'-DIMETHYLHYDRAZINE [540-73-8], N-BUTYL-N-(4-HYD, Dose [Inhibitor]: 5 PPM IN DIET FOR 25 WK BEGINNING 1 WK POST LAST CARCINOGEN DOSE (STUDY DURATION: 30 WK), Route [Inhibitor]: ORAL, Species: RAT, Strain/Sex: F344/MALE, Target Tissue: Type of Lesion: COLON: ADENOMA, Dose [Carcinogen]: 100 MG/KG BW DEN IP ONCE ON DAY 0, 20 MG/KG BW MNU IP 4X ON DAYS 2, 5, 8, 11, 40 MG/KG BW DMH SC ON DAYS 14, 17, 20, 23;, Dose [Carcinogen]: 100 MG/KG BW DEN IP ONCE ON DAY 0, 20 MG/KG BW MNU IP 4X ON DAYS 2, 5, 8, 11, 40 MG/KG BW DMH SC ON DAYS 14, 17, 20, 23;, Promoter: NONE) 6/18 (33.3%), 0/14 (0.0%), 100%, not significant.

On to `CCCCCCCCCCCCO`, for which, for the setting “Carcinogen: 4-(METHYLNITROSAMINO)-1-(3-PYRIDYL)-1-BUTANONE, 64091-91-4, Dose [Inhibitor]: 0, 1 UMOL IN 0.1 ML CORN OIL ONCE 2 HR PRIOR TO CARCINOGEN DOSE (STUDY DURATION: 16 WK), Route [Inhibitor]: GAVAGE, Species: MOUSE, Strain/Sex: STRAIN-A/FEMALE, Target Tissue: Type of Lesion: LUNG: ADENOMA, Dose [Carcinogen]: 10 UMOL IN 0.1 ML SALINE ONCE, Promoter: NONE USED”, the “tumour outcome (control, treated, inhibition, significance)” value is given as 100%, 100%, 0%, not significant.

For `C/C=C/S/C=C/C`, the “tumour outcome (control, treated, inhibition, significance)” value is listed as 100%, 86%, 14%, p<0.005 (Carcinogen: 7,12-DIMETHYLBENZ[A]ANTHRACENE, 57-97-6, Dose [Inhibitor]: 0, 1 MG IN 0.2 ML ACETONE APPLIED 30 MIN AFTER EACH MEZEREIN DOSE (STUDY DURATION: 20 WK), Route [Inhibitor]: DERMAL, Species: MOUSE, Strain/Sex: SENCAR/FEMALE, Target Tissue: Type of Lesion: SKIN: PAPILLOMA, Dose [Carcinogen]: 0.1 UMOL IN 0.2 ML ACETONE ONCE, Promoter: TPA, 16561-29-8, MEZEREIN, 37807-41-5, Promoter: TPA, 16561-29-8, MEZEREIN, 37807-41-5) and 100%, 91%, 9%, p<0.005 (Carcinogen: 7,12-DIMETHYLBENZ[A]ANTHRACENE, 57-97-6, Dose [Inhibitor]: 0, 1 MG IN 0.2 ML ACETONE APPLIED 30 MIN AFTER EACH TPA DOSE (STUDY DURATION: 20 WK), Route [Inhibitor]: DERMAL, Species: MOUSE, Strain/Sex: SENCAR/FEMALE, Target Tissue: Type of Lesion: SKIN: PAPILLOMA, Dose [Carcinogen]: 0.1 UMOL IN 0.2 ML ACETONE ONCE, Promoter: TPA, 16561-29-8, MEZEREIN, 37807-41-5, Promoter: TPA, 16561-29-8, MEZEREIN, 37807-41-5).

Regarding `CNC[C@H](O)c1ccc(O)c(O)c1`, the “tumour outcome (control, treated, inhibition, significance)” value is, setting by setting: (Carcinogen: 4-(METHYLNITROSAMINO)-1-(3-PYRIDLY)-1-BUTANONE [64091-91-4], Dose [Inhibitor]: 1 MG/KG BW 3X/WK FOR 31 WK BEGINNING 1 WK POST LAST CARCINOGEN DOSE (STUDY DURATION: 52 WK), Route [Inhibitor]: SUBCUTANEOUS, Species: HAMSTER, Strain/Sex: SYRIAN/MALE, Target Tissue: Type of Lesion: LUNG: TUMOR, Dose [Carcinogen]: 10 MG/KG BW 3X/WK FOR 20 WK (STUDY DURATION: 52 WK), Promoter: NONE) 12/15 (80.0%), 15/15 (100.0%), -25%, not calculated; (Carcinogen: 4-(METHYLNITROSAMINO)-1-(3-PYRIDLY)-1-BUTANONE [64091-91-4], Dose [Inhibitor]: 1 MG/KG BW 3X/WK FOR 31 WK BEGINNING 1 WK POST LAST CARCINOGEN DOSE (STUDY DURATION: 52 WK), Route [Inhibitor]: SUBCUTANEOUS, Species: HAMSTER, Strain/Sex: SYRIAN/MALE, Target Tissue: Type of Lesion: NASAL CAVITY: TUMOR, Dose [Carcinogen]: 10 MG/KG BW 3X/WK FOR 20 WK (STUDY DURATION: 52 WK), Promoter: NONE) 4/15 (26.7%), 3/15 (20.0%), 25%, not calculated.

`CCCCC[Se]C#N`: where the note is “Carcinogen: 7,12-DIMETHYLBENZ[A]ANTHRACENE, 57-97-6, Dose [Inhibitor]: 0.1, 2 PPM (SELENIUM) IN DIET FOR 3 WK BEGINNING 2 WK PRIOR TO CARCINOGEN DOSE (STUDY DURATION: 25 WK), Route [Inhibitor]: ORAL, Species: RAT, Strain/Sex: SPRAGUE-DAWLEY/FEMALE, Target Tissue: Type of Lesion: MAMMARY GLAND: TUMOR, Dose [Carcinogen]: 10 MG ONCE, Promoter: NONE USED”, the “tumour outcome (control, treated, inhibition, significance)” value is 25/30 (83%), 11/30 (37%), 55%, p<0.05.
